Source: US6458781B1, “Substituted diarylalkyl amides as calcium channel antagonists” (priority 1998, dated 2002)
Like-named read-outs stand apart in the source and are kept apart here.

Legend:
[1] = biological target: T1, N-type calcium channels in IMR-32 cells (Homo sapiens, UniProt Q00975); assay: N-type Ca2+ channel blocking potency in IMR-32 cells using Indo-1; type: cell-based; conditions: for inhibition at 1 µM / inhibition at 10 µM: IMR-32, IMR-32 cells; for inhibition at 1 µM: read-out: IMR32 % blockage at 1 μM; for inhibition at 10 µM: read-out: IMR32 % blockage at 10 μM; for IC50: IMR-32 cells
T1 construct: host or cells: IMR-32 cells differentiated with dibutyryl cAMP and bromodeoxyuridine
Procedure: Measurement of N-type Ca^2+ Channel Blocking Potencies of Compounds in IMR-32 Cells Using the Fluorescent Ca^2+ Indicator Indo-1
IMR-32 cells are a human tumoral cell line of neural origin. […] Calcium flux into these cells may be induced by stimulation with elevated potassium concentrations. The L-channel component of calcium flux may be blocked by adding 5 μM nitrendipine. The remaining component of calcium entry into the IMR-32 cells is due to calcium flux through N-type calcium channels. Intracellular calcium concentrations are measured using the fluorescent calcium indicator Indo-1. The effect of drug concentration on calcium uptake is studied.
The IMR-32 cell line was obtained from the American Type Culture Collection (Rockville, Md.). Cells were grown in Eagle's Minimum Essential Medium with Earle's salts supplemented with 10% fetal bovine serum, 2 mM L-Gln and antibiotic/antimycotic mixture (Gibco). At approximately 80% confluency, differentiation was induced by the addition of 1 mM dibutyryl cAMP and 2.5 μM bromodeoxyuridine to the medium. After 7 to 13 days of differentiation, cells were detached using 0.5 mM EDTA and loaded with 5 μM Indo-1 acetoxymethyl ester (Molecular Probes, Eugene, Oreg.) at 30° C. for 45 minutes. Loaded cells were washed twice, resuspended (˜10^7 cells/mL) in assay buffer (10 mM HEPES/Tris pH 7.4 in Hank's Balanced Salt Solution without bicarbonate or phenol red containing 0.5% bovine serum albumin) and kept on ice until use. Fluorescence measurements were carried out in a Photon Technology International (PTI, South Brunswick, N.J.) Model RF-F3004 spectrofluorometer with dual emission monochromators using excitation at 350 nm and emission at 400 and 490 nm. The instrument was equipped with a thermostated cuvette holder with stirring capabilities as well as with a computer-controlled pump which allowed for reagent addition during measurement. Instrument control and data collection was done by PTI's OSCAR software running on an IBM compatible computer. Different concentrations of the test compounds (60 μL in dimethyl sulfoxide) were added to 5.94 mL of assay buffer containing approximately 3×10^6 loaded cells, and 5 μM Nitrendipine (in 30 μL EtOH) to block L-type Ca^2+ channels. Samples were incubated for 10 minutes at 30° C. and the aliquot into three 10×10 mm disposable acrylic cuvettes. Emission signals at 400 and 490 nm were acquired from each cuvette at 30° C. for 50 seconds. At 20 seconds after the start of reading, cells were depolarized by the addition of 160 μL of stimulation solution (1 M KCl, 68 mM CaCl2) to the cuvette via the computer-controlled pump. Ratio of dual emission signals (400/490 nm), which is proportional to intracellular Ca^2+ concentration, was plotted against time, and the difference between maximal response after stimulation and basal value (before stimulation) was determined. Values obtained in this way were plotted as a function of drug concentration. IC50 values of test compounds were calculated by fitting a four-parameter logistic function to the data using the least squares method.

[2] = biological target: T2, L-type calcium channels in A10 cells (Rattus norvegicus, UniProt P22002); assay: L-type Ca2+ channel blocking potency in A10 cells (FLIPR); type: cell-based; conditions: read-out: FLPA10 IC50
T2 construct: which endogenously expresses L-type calcium channels; host or cells: A10 rat embryonic thoracic aorta smooth muscle cells
Procedure: Measurement of L-type Ca^2+ Channel Blocking Potencies of Compounds in A10 Cells
Calcium flux through voltage-sensitive calcium channels was assessed by time-resolved monitoring of the fluorescence of pre-loaded calcium-sensitive dyes using FLIPR, a fluorescent image plate reader (Molecular Devices Co.). The A10 smooth muscle cell line derived from embryonic thoracic aorta of the DBIX rat (ATCC, CRL-1476) which endogenously expresses L-type calcium channels. The growth media for A10 cells was Ham's F12/DME high glucose (Irvine Scientific, 9052), supplemented with 20% fetal bovine serum (HyClone Labs, A-1115-L), and 1% each of L-glutamine and antibiotic-antimycotic (same source as above).
Cells were grown to confluency and replated on black-sided 96-well plates (Costar, 3603) for use in FLIPR. Two days after replating, growth media was removed and cells were loaded at 37° C. with 100 μL media containing 1 μM Oregon Green 488 Bapta-1 dye (Molecular Probes, O-6807) for 1 to 3 hours. The dye-containing media was then washed away with buffer (composition in mM: 1.25 CaCl2, 1.2 MgSO4, 11 glucose, 10 HEPES, 3.0 KCl, 137.0 NaCl, pH 7.4 with Tris base) in a Denley Cellwash (Labsystems, CW018B). The residual buffer volume was adjusted to 50 μL. A 5 minute drug-pre-incubation period at 35° C. was initiated when 50 μL of drug-containing buffer was pipetted into the cell plate with the 96-well pipettor integrated in the FLIPR apparatus. Fluorescent counts were monitored at 20 second intervals for 360 seconds, beginning 60 seconds prior to the delivery of drug-containing buffer. Following drug addition, 100 μL aliquots of a high K^+, depolarizing stimulus (composition in mM: 1.25 CaCl2, 1.2 MgSO4, 11 glucose, 10 HEPES, 140.0 KCl, pH 7.4 with Tris base) were added to each well, and fluorescence was monitored at 1 second intervals for 120 seconds beginning 10 seconds prior to the stimulus addition. CCD camera exposure time was 0.4 seconds, laser excitation was at 488 nm with a power of 0.2-0.5W, and a 510 to 560 nm bandpass interference filter preceded the camera.
Data was analyzed as a summation of fluorescent counts above basal during the stimulation period (an approximation of area under the curve), after normalizing the data with a spatial uniformity correction (for variations in laser illumination and cell density) and a negative control correction (zero calcium increase defined as the fluorescence reading in the presence of saturating pharmacologic block of the respective calcium channel). Drug effects were expressed as percent inhibition of fluorescence from an average of 8 K^+-stimulated wells which were pre-treated in the drug incubation period with buffer only. In the A10 cells, the pharmacologic agent used to define zero calcium influx was nitrendipine (RBI, N-144) at a final concentration of 1.0×10^−6 M.

[3] = estimated from two data points, read-out: IMR32 IC50 (estimated IC50 values based on two data points)

T1 sequence (Q00975 whole entry): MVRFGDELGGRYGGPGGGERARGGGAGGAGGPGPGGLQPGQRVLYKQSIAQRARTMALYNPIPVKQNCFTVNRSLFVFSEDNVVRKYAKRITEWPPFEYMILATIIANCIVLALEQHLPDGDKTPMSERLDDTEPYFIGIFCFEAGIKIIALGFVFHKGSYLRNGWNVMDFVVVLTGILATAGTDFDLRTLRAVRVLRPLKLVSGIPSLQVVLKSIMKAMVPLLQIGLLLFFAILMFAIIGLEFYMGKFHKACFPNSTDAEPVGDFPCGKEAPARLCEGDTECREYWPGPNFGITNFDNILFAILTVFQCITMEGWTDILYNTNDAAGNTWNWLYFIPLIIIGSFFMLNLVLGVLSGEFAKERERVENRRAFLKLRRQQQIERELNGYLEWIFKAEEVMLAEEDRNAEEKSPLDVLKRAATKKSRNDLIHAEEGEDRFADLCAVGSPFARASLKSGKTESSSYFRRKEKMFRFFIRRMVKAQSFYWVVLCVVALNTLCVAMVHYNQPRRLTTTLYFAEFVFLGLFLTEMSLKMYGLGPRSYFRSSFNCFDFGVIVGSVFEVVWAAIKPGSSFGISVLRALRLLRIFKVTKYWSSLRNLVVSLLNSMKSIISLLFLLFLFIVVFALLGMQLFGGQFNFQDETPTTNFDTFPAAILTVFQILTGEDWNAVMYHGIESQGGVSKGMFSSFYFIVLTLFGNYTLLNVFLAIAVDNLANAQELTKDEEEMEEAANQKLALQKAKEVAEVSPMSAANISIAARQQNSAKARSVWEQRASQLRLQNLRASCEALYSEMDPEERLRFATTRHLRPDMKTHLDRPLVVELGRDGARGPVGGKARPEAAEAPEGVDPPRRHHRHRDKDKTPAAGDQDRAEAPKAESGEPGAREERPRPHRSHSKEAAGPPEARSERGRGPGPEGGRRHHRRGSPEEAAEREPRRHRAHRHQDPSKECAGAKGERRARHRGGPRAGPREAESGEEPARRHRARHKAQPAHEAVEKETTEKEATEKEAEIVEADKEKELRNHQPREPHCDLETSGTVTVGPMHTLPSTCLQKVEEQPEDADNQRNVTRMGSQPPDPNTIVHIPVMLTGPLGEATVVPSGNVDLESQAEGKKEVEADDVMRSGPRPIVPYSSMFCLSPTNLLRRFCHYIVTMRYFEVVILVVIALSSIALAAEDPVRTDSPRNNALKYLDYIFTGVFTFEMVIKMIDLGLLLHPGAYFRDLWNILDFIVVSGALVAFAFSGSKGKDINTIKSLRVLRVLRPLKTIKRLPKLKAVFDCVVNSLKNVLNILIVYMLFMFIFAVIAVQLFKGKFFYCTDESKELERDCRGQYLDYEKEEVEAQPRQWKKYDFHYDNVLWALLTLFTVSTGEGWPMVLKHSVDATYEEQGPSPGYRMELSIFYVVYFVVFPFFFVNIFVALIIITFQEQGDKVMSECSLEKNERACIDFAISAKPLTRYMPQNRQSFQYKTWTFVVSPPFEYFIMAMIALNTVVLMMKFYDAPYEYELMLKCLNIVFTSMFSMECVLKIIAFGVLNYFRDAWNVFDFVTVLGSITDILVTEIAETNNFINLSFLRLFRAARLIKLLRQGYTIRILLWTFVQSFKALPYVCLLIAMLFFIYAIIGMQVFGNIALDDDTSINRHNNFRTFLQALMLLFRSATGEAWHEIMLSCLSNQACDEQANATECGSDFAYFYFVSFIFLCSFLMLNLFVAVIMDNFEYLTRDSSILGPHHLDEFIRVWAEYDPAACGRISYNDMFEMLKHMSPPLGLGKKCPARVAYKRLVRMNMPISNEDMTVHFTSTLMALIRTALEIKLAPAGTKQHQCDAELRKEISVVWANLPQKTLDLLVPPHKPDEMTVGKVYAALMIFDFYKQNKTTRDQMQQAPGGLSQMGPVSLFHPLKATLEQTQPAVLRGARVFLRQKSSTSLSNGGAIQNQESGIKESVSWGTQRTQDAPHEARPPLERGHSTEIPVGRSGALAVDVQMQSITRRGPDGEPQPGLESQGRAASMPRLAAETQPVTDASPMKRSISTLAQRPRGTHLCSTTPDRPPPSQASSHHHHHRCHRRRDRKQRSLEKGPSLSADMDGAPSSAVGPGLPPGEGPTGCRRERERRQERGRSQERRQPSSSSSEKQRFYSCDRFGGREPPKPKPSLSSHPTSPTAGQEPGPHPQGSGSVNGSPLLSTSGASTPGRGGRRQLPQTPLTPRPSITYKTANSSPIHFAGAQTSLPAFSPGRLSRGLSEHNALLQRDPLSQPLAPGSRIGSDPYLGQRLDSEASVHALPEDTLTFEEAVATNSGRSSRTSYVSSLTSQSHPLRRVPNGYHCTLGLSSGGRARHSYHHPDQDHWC
T1 sequence (P54289 25-956 partner limits assumed): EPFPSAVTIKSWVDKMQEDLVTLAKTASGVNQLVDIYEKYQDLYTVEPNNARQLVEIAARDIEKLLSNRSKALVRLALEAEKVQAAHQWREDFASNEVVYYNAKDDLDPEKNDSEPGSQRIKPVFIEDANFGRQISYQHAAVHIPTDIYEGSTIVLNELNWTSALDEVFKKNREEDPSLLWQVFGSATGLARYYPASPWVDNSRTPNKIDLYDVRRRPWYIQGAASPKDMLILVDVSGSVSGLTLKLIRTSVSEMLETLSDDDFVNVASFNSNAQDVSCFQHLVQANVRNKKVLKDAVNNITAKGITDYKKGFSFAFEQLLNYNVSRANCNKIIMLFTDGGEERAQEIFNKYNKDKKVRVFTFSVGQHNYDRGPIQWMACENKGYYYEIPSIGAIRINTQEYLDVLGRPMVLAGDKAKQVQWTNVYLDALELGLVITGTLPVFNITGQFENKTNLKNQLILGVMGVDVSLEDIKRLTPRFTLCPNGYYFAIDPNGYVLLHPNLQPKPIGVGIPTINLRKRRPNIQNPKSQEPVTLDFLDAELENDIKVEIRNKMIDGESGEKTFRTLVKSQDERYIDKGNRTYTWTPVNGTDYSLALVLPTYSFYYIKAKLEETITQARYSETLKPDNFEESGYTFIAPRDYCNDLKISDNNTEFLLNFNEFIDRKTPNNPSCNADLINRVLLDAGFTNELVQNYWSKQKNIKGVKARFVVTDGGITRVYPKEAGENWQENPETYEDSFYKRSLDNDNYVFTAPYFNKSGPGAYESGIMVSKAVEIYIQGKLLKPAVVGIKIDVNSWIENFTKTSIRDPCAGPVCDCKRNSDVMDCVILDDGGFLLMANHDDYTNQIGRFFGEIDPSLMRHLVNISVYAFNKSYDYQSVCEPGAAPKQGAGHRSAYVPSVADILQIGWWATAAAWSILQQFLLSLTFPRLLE
T1 sequence (P54289 957-1103 partner limits assumed): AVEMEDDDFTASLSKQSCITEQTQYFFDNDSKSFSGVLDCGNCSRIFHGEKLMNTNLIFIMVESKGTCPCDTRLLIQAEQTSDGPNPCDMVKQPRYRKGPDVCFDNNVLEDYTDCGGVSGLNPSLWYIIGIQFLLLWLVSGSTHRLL
T1 sequence (Q02641 whole entry partner): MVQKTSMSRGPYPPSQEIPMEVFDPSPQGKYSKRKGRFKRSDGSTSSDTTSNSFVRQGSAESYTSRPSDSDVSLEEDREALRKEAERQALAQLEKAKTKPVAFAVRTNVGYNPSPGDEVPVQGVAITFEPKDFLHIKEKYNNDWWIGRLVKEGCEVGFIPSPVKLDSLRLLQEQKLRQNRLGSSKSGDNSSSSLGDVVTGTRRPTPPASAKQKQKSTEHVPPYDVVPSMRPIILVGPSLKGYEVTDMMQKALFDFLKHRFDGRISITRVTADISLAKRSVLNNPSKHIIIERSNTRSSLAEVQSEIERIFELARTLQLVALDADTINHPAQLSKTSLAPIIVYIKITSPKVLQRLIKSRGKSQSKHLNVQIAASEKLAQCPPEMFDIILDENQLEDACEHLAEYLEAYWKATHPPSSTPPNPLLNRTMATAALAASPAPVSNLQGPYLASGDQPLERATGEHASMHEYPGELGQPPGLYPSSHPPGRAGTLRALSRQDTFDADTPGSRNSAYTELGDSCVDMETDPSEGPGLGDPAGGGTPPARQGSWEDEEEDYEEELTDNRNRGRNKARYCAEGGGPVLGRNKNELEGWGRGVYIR

CC(C)CC(NC(=O)N1CCN(C)CC1)C(=O)N1CCN(C(c2ccc(F)cc2)c2ccc(F)cc2)CC1 (stereo in doubt) [Example 47, (S)-4-Methyl-piperazine-1-carboxylic acid (1-{4-[bis-(4-fluoro-phenyl)-methyl]-piperazine-1-carbonyl}-3-methyl-butyl)-amide] showed an inhibition at 1 µM [1] of 13%, an inhibition at 10 µM [1] of 54% and an IC50 [2] of 1700 nM. The melting point was 65 to 78 °C.
Work on CCC(C)[C@H](NC(=O)N1CCCCCC1)C(=O)NCCCC(c1ccc(F)cc1)c1ccc(F)cc1 (stereo partly drawn) [Example 16, (S)-Azepane-1-carboxylic acid {1-[4,4-bis-(4-fluoro-phenyl)-butylcarbamoyl]-2-methyl-butyl}-amide] yielded an IC50 [1, 3] of 610 nM, an IC50 [2] of 270 nM and a melting point of 50 to 60 °C.
CC(C)C[C@H](NC(=O)N1CCN(c2ccccc2)CC1)C(=O)NCCCC(c1ccc(F)cc1)c1ccc(F)cc1 [Example 17, (S)-4-Phenyl-piperazine-1-carboxylic acid {1-[4,4-bis-(4-fluoro-phenyl)-butylcarbamoyl]-3-methyl-butyl}-amide] showed an IC50 [1, 3] of 2000 nM, an IC50 [2] of 74 nM and a melting point of 138 to 141 °C.
With CC(C)C[C@@H](C(=O)NCCCC(c1ccc(F)cc1)c1ccc(F)cc1)N1CCCCC1 [Example 22, (S)-4-Methyl-2-piperidin-1-yl-pentanoic acid [4,4-bis-(4-fluoro-phenyl)-butyl]-amide] the inhibition at 1 µM [1] was 49%, the inhibition at 10 µM [1] was 94% and the IC50 [2] was 160 nM. For the same molecule, the melting point was 52 to 70 °C.
With CC(C)C[C@@H](C(=O)NCCC(c1ccccc1)c1ccccc1)N1CCCCC1.Cl [Example 24, (S)-4-Methyl-2-piperidin-1-yl-pentanoic acid (3,3-diphenyl-propyl)-amide monohydrochloride] the inhibition at 1 µM [1] was 35%, the inhibition at 10 µM [1] was 89% and the IC50 [2] was 1500 nM. For the same molecule, the melting point was 58 to 65 °C.
Molecule CC(C)[C@H](NC(=O)N1CCCCCC1)C(=O)NCCCC(c1ccc(F)cc1)c1ccc(F)cc1 [Example 26, (S)-Azepane-1-carboxylic acid {1-[4,4-bis-(4-fluoro-phenyl)-butylcarbamoyl]-2-methyl-propyl}-amide] has an IC50 [1, 3] of 840 nM, an IC50 [2] of 240 nM and a melting point of 32 to 50 °C.
With CC(C)C[C@H](NC(=O)N1CCN(C)CC1)C(=O)NCCCC(c1ccc(F)cc1)c1ccc(F)cc1 [Example 29, (S)-4-Methyl-piperazine-1-carboxylic acid {1-[4,4-bis-(4-fluoro-phenyl)-butylcarbamoyl]-3-methyl-butyl)-amide] the inhibition at 1 µM [1] was 22%, the inhibition at 10 µM [1] was 82% and the IC50 [2] was 1200 nM. The melting point was 73 to 91 °C.
C[C@H](NC(=O)N1CCCCCC1)C(=O)NCCCC(c1ccc(F)cc1)c1ccc(F)cc1 [Example 30, (S)-Azepane-1-carboxylic acid {1-[4,4-bis-(4-fluoro-phenyl)-butylcarbamoyl]-ethyl}-amide] showed an inhibition at 1 µM [1] of 39%, an inhibition at 10 µM [1] of 100% and an IC50 [2] of 1300 nM. The melting point was 29 to 49 °C.
O=C(CNC(=O)N1CCCCCC1)N1CCN(C(c2ccc(F)cc2)c2ccc(F)cc2)CC1 [Example 32, (S)-Azepane-1-carboxylic acid (2-{4-[bis-(4-fluoro-phenyl)-methyl]-piperazin-1-yl}-2-oxo-ethyl)-amide] showed an IC50 ([1]; 5 μM nitrendipine present, read-out: IMR32 IC50) of 470 nM, an IC50 [2] of 1800 nM and a melting point of 66 to 86 °C.
Molecule CC(C)C[C@@H](C(=O)N1CCN(C(c2ccc(F)cc2)c2ccc(F)cc2)CC1)N(C)C1CCOCC1 [Example 41, (S)-1-{4-[Bis-(4-fluoro-phenyl)-methyl]-piperazin-1-yl}-4-methyl-2-[methyl-(tetrahydro-pyran-4-yl)-amino]-pentan-1-one] has an IC50 [1, 3] of 2300 nM, an IC50 [2] of 780 nM and a melting point of 56 to 65 °C.
CC(C)C[C@@H](C(=O)N1CCN(C(c2ccc(F)cc2)c2ccc(F)cc2)CC1)N1CCOCC1 [Example 42, (S)-1-{4-[Bis-(4-fluoro-phenyl)-methyl]-piperazin-1-yl}-4-methyl-2-morpholin-4-yl-pentan-1-one] gave an IC50 [1, 3] of 3400 nM, an IC50 [2] of 2000 nM and a melting point of 55 to 63 °C.
In the case of CCC(C)[C@H](NC(=O)N1CCCCCC1)C(=O)N1CCN(C(c2ccc(F)cc2)c2ccc(F)cc2)CC1 (stereo partly drawn) [Example 43, (S)-Azepane-1-carboxylic acid (1-{4-[bis-(4-fluoro-phenyl)-methyl]-piperazine-1-carbonyl}-2-methyl-butyl)-amide], the IC50 [1, 3] is reported as 470 nM, the IC50 [2] is reported as 440 nM and the melting point is reported as 64 to 77 °C.
CC(C)C[C@H](NC(=O)N1CCN(c2ccccc2)CC1)C(=O)N1CCN(C(c2ccc(F)cc2)c2ccc(F)cc2)CC1 [Example 44, (S)-4-Phenyl-piperazine-1-carboxylic acid (1-{4-[bis-(4-fluoro-phenyl)-methyl]-piperazine-1-carbonyl}-3-methyl-butyl)-amide] showed an IC50 [1, 3] of 410 nM, an IC50 [2] of 300 nM and a melting point of 83 to 91 °C.
With CC(C)C[C@H](NC(=O)N1CCCCCC1)C(=O)N1CCN(C2c3ccccc3-c3ccccc32)CC1 [Example 45, (S)-Azepane-1-carboxylic acid {1-[4-(9H-fluoren-9-yl)-piperazine-1-carbonyl]-3-methyl-butyl}-amide] the IC50 [1, 3] was 1500 nM, the IC50 [2] was 930 nM and the melting point was 63 to 73 °C.
In the case of CC(C)C[C@H](NCc1ccc(C(C)(C)C)cc1)C(=O)N1CCN(C(c2ccc(F)cc2)c2ccc(F)cc2)CC1 [Example 58, (S)-1-{4-[Bis-(4-fluoro-phenyl)-methyl]-piperazin-1-yl}-2-(4-tert-butyl-benzylamino)-4-methyl-pentan-1-one], the IC50 [2] is reported as > 3000 nM and the melting point is reported as 57 to 62 °C.
Work on CC(C)C[C@H](NCc1ccc(OC(C)(C)C)cc1)C(=O)N1CCN(C(c2ccc(F)cc2)c2ccc(F)cc2)CC1 [Example 64, (S)-1-{4-[Bis-(4-fluoro-phenyl)-methyl]-piperazin-1-yl}-2-(4-tert-butoxy-benzylamino)-4-methyl-pentan-1-one] yielded an IC50 [2] of 89 nM and a melting point of 56 to 61 °C.
